Measured values as given in publication PMC11766601, “A Comparative Study of the In Vitro Intestinal Permeability of Pinnatoxins and Portimine” (Marine Drugs, 2025).
Marks after values point to notes of the source that are not given here.

What was measured:
Caco-2 cells = assay: Trans-epithelial electrical resistance (TEER) of differentiated Caco-2 monolayers; assay type: cell-based, human
Experimental: (§1) All experiments were performed with human intestinal Caco-2 cells (ATCC-HTB37), acquired from the American Type Culture Collection (ATCC; Manassas, VA, USA). Caco-2 cells originate from a colorectal adenocarcinoma, but upon reaching confluence, they differentiate and express the characteristics of enterocytes. The cells were cultivated in minimum essential medium containing 5.5 mM D-glucose, Earle’s salts, and 2 mM L-alanyl-glutamine (MEM GlutaMAX™, Gibco, Bromont, QC, Canada) supplemented with 10% fetal bovine serum (FBS, Gibco), 1% non-essential amino acids, 50 U/mL penicillin, and 50 μg/mL streptomycin (Gibco) under humidified conditions (37 °C, 5% CO2, 95% humidity). The cells were grown for 3–4 days up to 80% confluence before trypsinization and sub-culture. For the experiments, the cells were seeded in TRANSWELL® plates (12 wells, 0.4 µm pore size; Costar®, Corning Incorporated, Corning, NY, USA) at a density of 90,000 cells/cm^2. Prior to toxin treatment, highly differentiated Caco-2 cells were obtained after 24–26 days of culture, with medium renewal every 2–3 days. Passage numbers between 30 and 40 were used for experiments.
(§2) PnTX-A, PnTX-G, PnTX-E, PnTX-H, and portimine stock solutions were prepared in methanol, while PnTX-F was provided in acetonitrile/acetic acid (50%/0.1%). For each toxin, the cells were incubated at 8, 16, and 32 ng/mL (diluted in HBSS) for 2 h, 6 h, and 24 h, with a final volume of 1.5% solvent. The controls were incubated with the cell culture medium containing the respective solvent of the toxin at 1.5%. Each experiment included three biological replicates. Two to three independent experiments were conducted.
Epithelial integrity was examined by measuring the TEER between the apical and basolateral compartments. After rinsing with a HBSS solution (HBSS, HEPES 5 mM, pH 7.4), the Caco-2 monolayers were equilibrated for 30 min at 37 °C with 300 and 1000 µL HBSS in the apical (A) and basolateral (B) chambers, respectively. Then, the content of the apical compartment was replaced with 500 µL HBSS-containing toxins. TEER was quantified with a Millipore Millicell Electrical Resistance System (ERS Millipore, EMD Millipore Corporation, Burlington, MA, USA). The mean value of two measurements per well before and after the treatment was calculated and multiplied by the surface of the insert to obtain Ω × cm^2. After blank subtraction, the results were presented as a percentage of the solvent control.

Caco-2 cell monolayers [1] = assay: Lucifer Yellow paracellular permeability (barrier integrity); assay type: cell-based, human; conditions: 24 h
Experimental: as §1, §2
For the assay, both compartments of the insert system were washed with Hank’s balanced salt solution (HBSS). Then, 0.5 mL of 0.1 mg/mL Lucifer Yellow in HBSS buffer and 1 mL of pure HBSS buffer were added to the apical and basolateral compartments, respectively. After a 2 h incubation at 37 °C, the media of the basolateral compartments were collected and the fluorescence of each compartment was measured in triplicate (excitation: 405 nm, emission: 520 nm) with a FLUOstar Optima microplate reader (BMG Labtech, Ortenberg, Germany). After subtraction of the blank (HBSS), the permeability of the […] was calculated against the value obtained for pure LY and reported as % permeability.

[2] = Toxin crossing and apparent permeability across Caco-2 cell monolayers (A to B), LC-MS/MS; assay type: in vitro ADME, human; conditions: human, Caco-2; for Papp at 2 h, 8 ng/mL / Papp at 6 h, 8 ng/mL: loaded 8 ng/mL; for Papp at 2 h, 8 ng/mL / Papp at 2 h, 16 ng/mL / Papp at 2 h, 32 ng/mL / Papp at 6 h, 8 ng/mL / Papp at 6 h, 16 ng/mL / Papp at 6 h, 32 ng/mL: A to B; for Papp at 2 h, 16 ng/mL / Papp at 6 h, 16 ng/mL: loaded 16 ng/mL; for Papp at 2 h, 32 ng/mL / Papp at 6 h, 32 ng/mL: loaded 32 ng/mL; for Papp: 2 and 6 h, 8-32 ng/mL, read-out: Papp, range of means
Experimental: as §1, §2
(§3) The apical and basolateral compartments were collected after 2, 6, and 24 h treatment time. Parts of the solutions that were used to load the apical compartments were also stored (T0) to take into account the real concentration and not the estimated concentration. All the samples were stored at −20 °C until LC/MS analysis.
(§4) The LC-MS/MS analysis of toxins was implemented for the quantitative analysis of toxins. The LC system was an Agilent 1200 (Agilent Technologies, Santa Clara, CA, USA). The chromatographic separation was performed using a column Hypersil GOLD® C18 50 mm × 2.1 mm, 1.9 μm (Thermo Scientific, Waltham, MA, USA). Eluent A consisted of water, and eluent B of acetonitrile/water at a ratio of 95:5 (v/v), with both eluents containing 50 mM formic acid and 2 mM ammonium formate. The LC flow rate was 0.4 mL/min, and the gradient was programmed as follows: 10% B held for 0.5 min, 10–90% B in 5 min, 90% B held for 1 min, 90–10% B in 0.5 min, and 10% B held for 3.0 min, for a total run time of 10 min. The injection volume was 5 μL, while the column temperature was maintained at 40 °C. The column effluent was transferred via a divert valve (Valco Instruments Co., Inc., Houston, TX, USA), either to the mass spectrometer (between 1.7 and 5.5 min) or to waste.
(§5) The detection system was constructed with an API 4000 triple quadrupole mass spectrometer (Sciex, Framingham, MA, USA) equipped with an ElectroSpray Ionization (ESI) source (Turbo V). The mass spectrometer was operated in positive ESI mode. The source temperature was set at 600 °C, and the spray voltage was 5500 V. Air was used as a nebulizer gas and an auxiliary gas, with a gas pressure of 40 and 60 psi, respectively. Meanwhile, the curtain gas and collision gas were nitrogen, with a gas pressure of 15 and 8 psi, respectively. The mass spectrometer was operated in multiple reaction monitoring mode (MRM). One transition was used for quantification (Q) and another as a qualifier transition (q). A mass resolution of 0.7 Da full width at half maximum (FWHD) was set on the first (Q1) and the third (Q3) quadrupoles. Instrument control and data were handled with Analyst software version 1.5.1 (Sciex, Framingham, MA, USA).
(§6) The portimine and PnTX retention times varied between 2.7 and 4.4 min (Figure S1). […]

Caco-2 cell monolayers [3] = assay: as above; assay type: in vitro ADME, human; conditions: for % theoretical amount of toxin crossing the Caco-2 cell monolayers: relative to theoretical loaded concentration; for Percentage of toxin crossing the Caco-2 cell monolayers: A to B, relative to quantified T0; for permeability / oral bioavailability class from Caco-2 Papp: threshold Papp > 1.5 × 10^−6 cm·s^−1 = highly penetrative; for amount of toxin crossing the intestinal barrier in vitro: regardless of the concentration loaded, 2 and 6 h
Experimental: as §1, §2, §3, §4, §5, §6

mice = conditions: mice, oral exposure; cited from earlier work
[4] = all concentrations (8, 16, 32 ng/mL)

| SMILES | Papp at 2 h, 8 ng/mL [2] [nm/s] | Papp at 2 h, 16 ng/mL [2] [nm/s] | Papp at 2 h, 32 ng/mL [2] [nm/s] | Papp at 6 h, 8 ng/mL [2] [nm/s] | Papp at 6 h, 16 ng/mL [2] [nm/s] | Papp at 6 h, 32 ng/mL [2] [nm/s] | % theoretical amount of toxin crossing the Caco-2 cell monolayers (Caco-2 cell monolayers [3]; 2 h, 8 ng/mL) [%] | % theoretical amount of toxin crossing the Caco-2 cell monolayers (Caco-2 cell monolayers [3]; 2 h, 16 ng/mL) [%] | % theoretical amount of toxin crossing the Caco-2 cell monolayers (Caco-2 cell monolayers [3]; 2 h, 32 ng/mL) [%] | Percentage of toxin crossing the Caco-2 cell monolayers (Caco-2 cell monolayers [3]; 2 h, loaded 8 ng/mL) | Percentage of toxin crossing the Caco-2 cell monolayers (Caco-2 cell monolayers [3]; 2 h, loaded 16 ng/mL) [%] | Percentage of toxin crossing the Caco-2 cell monolayers (Caco-2 cell monolayers [3]; 2 h, loaded 32 ng/mL) [%] | % theoretical amount of toxin crossing the Caco-2 cell monolayers (Caco-2 cell monolayers [3]; 6 h, 8 ng/mL) [%] | % theoretical amount of toxin crossing the Caco-2 cell monolayers (Caco-2 cell monolayers [3]; 6 h, 16 ng/mL) [%] | % theoretical amount of toxin crossing the Caco-2 cell monolayers (Caco-2 cell monolayers [3]; 6 h, 32 ng/mL) [%] | Percentage of toxin crossing the Caco-2 cell monolayers (Caco-2 cell monolayers [3]; 6 h, loaded 8 ng/mL) [%] | Percentage of toxin crossing the Caco-2 cell monolayers (Caco-2 cell monolayers [3]; 6 h, loaded 16 ng/mL) [%] | Percentage of toxin crossing the Caco-2 cell monolayers (Caco-2 cell monolayers [3]; 6 h, loaded 32 ng/mL) [%] | permeability / oral bioavailability class from Caco-2 Papp (Caco-2 cell monolayers [3]) | effect on LY permeability (Caco-2 cell monolayers [1]; [4]) | also measured |
| --- | --- | --- | --- | --- | --- | --- | --- | --- | --- | --- | --- | --- | --- | --- | --- | --- | --- | --- | --- | --- | --- |
| C=CC1=CC2C3OC4(CC(C)CC3O4)CC3OC4(CCC5(OC(CCC5(C)O)CC(=C)CCCC5=NCC(C)C(C)CC52CC1)O4)CC(C)C3O (centres unmarked) [PnTX-H, Pinnatoxin H] | 195 ± 31.4 | 137 ± 48.3 | 180 ± 21.9 | 360 ± 54 | 303 ± 66.9 | 336 ± 24.3 | 3.96 ± 0.19 | 3.21±0.94 | 4.32 ± 1.10 | 31.52 ± 5.07% | 22.05 ± 7.80 | 29.07 ± 3.54 | 7.37 ± 1.42 | 7.10 ± 0.79 | 8.04 ± 1.80 | 58.06 ± 8.71 | 48.83 ± 11.22 | 54.22 ± 3.91 | high oral bioavailability |  | effect on TEER (Caco-2 cells; 24 h, 32 ng/mL): slight, but non-significant, decrease; effect on passage of LY (Caco-2 cell monolayers [1]): lower effect; effect on LY permeability (Caco-2 cell monolayers [1]; 32 ng/mL only): significant increase |
| C=C1CCCC2=NCC(C)C(C)CC23CCC(C(O)CCC(=O)O)=CC3C2OC3(CC(C)CC2O3)CC2OC3(CCC4(OC(CCC4(C)O)C1)O3)CC(C)C2O (centres unmarked) [PnTX-E] | 37.5 | 15 ± 4 | 18.1 ± 2.8 | 20.4 ± 4 | 14.9 ± 6.5 | 23.8 ± 7.1 | 5.25 | 2.12 ± 0.71 | 2.47 ± 0.31 | 6.05 * % | 2.41 ± 0.65 | 2.92 ± 0.45 | 2.87 ± 0.53 | 2.12 ± 1.06 | 3.25 ± 0.88 | 3.29 ± 0.64 | 2.40 ± 1.06 | 3.85 ± 1.15 | poor permeability | significant increase | effect on TEER (Caco-2 cells; 24 h, 16 and 32 ng/mL): slight, but non-significant, decrease; Papp [2]: 14.9 to 37.5 nm/s; decrease of toxin amount in the apical compartment (Caco-2 cell monolayers [3]; 2 h, all the tested concentrations): approximately 15%; toxin amount in the apical compartment (Caco-2 cell monolayers [3]; 6 h): approximately 100 % of the loaded amount; amount of toxin crossing the intestinal barrier in vitro (Caco-2 cell monolayers [3]): < 4%; macroscopic lesions on the intestine, other organs and tissues (mice): no macroscopic lesions |
| C=C1CCCC2=NCC(C)C(C)CC23CCC(C(=O)O)=CC3C2OC3(CC4CCCC5(CCC6(OC(CCC6(C)O)C1)O5)O4)CC(C)C(O)C2O3 (centres unmarked) [PnTX-A] | 14.5 ± 10.3 | 14 ± 2.1 | 12.5 ± 3.9 | 21.3 ± 3.8 | 19.2 ± 9.5 | 14.8 ± 4.1 | 2.83 ± 2.1 | 2.5 ± 0.33 | 2.60 ± 0.80 | 2.35 ± 1.66% | 2.26 ± 0.34 | 2.01 ± 0.63 | 4.08 ± 0.52 | 3.42 ± 1.63 | 3.12 ± 1.05 | 3.44 ± 0.62 | 3.10 ± 1.53 | 2.39 ± 0.65 | poor permeability | significant increase | effect on TEER (Caco-2 cells; irrespective of time (2, 6, 24 h) and concentration (8, 16, 32 ng/mL)): no effect; Papp [2]: 12.5 to 21.3 nm/s; amount of toxin crossing the intestinal barrier in vitro (Caco-2 cell monolayers [3]): < 4% |
